According to ChEMBL document CHEMBL1201862, “PubChem BioAssay data set” (2004):
Blank lines part the entries; values can stand above or below the molecule they belong to. Active and inactive are the calls of the source.

Legend:
[1] = molecular target: Melanin-concentrating hormone receptor 1 (Homo sapiens, UniProt Q99705); test: Late-stage fluorescence-based counterscreen for antagonists of the G-protein coupled receptor 7 (GPR7): cell-based dose response assay to identify antagonists of the melanin-concentrating hormone receptor 1 (MCHR1) Set 6.; type: functional
[2] = molecular target: Neuropeptides B/W receptor type 1 (Homo sapiens, UniProt P48145); test: human NPBW1 receptor blockade, IC50 – cell-based, fluorescence, dose response, set 6, late-stage follow-up (AID 588583); type: functional
[3] = NIH3T3 cell viability loss – ATP luminescence, mouse fibroblasts, counter-screen, dose response (AID 2010); type: functional, cell-based;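 note: cells exposed to compound for about 90 hours before reading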
[4] = molecular target: T1, High affinity choline transporter 1 (Homo sapiens, UniProt Q9GZV3); test: human choline transporter blockers, potency – cell-based, 5-point CRC, membrane potential dye, dose response (AID 504840); type: functional
T1 sequence (Q9GZV3 whole entry): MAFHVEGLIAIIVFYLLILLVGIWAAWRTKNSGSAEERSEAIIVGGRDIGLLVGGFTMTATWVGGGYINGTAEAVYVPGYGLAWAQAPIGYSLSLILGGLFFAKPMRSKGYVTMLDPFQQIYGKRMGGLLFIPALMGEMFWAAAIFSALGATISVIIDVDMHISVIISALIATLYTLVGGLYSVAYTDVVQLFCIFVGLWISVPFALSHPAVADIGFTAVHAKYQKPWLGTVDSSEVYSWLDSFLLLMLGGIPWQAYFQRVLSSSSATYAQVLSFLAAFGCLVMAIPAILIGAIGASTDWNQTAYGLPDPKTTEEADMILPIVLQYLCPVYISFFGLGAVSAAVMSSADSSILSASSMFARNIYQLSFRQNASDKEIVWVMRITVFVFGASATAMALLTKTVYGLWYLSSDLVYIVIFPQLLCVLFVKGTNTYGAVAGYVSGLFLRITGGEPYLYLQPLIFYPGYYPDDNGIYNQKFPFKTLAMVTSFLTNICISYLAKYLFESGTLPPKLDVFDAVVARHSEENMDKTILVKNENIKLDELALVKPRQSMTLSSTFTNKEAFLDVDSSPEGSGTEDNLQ

[5] = molecular target: T1, High affinity choline transporter 1; test: human choline transporter blockers, potency – cell-based, 10-point CRC, membrane potential dye, dose response (AID 588401); type: functional;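 note: membrane potential dye fluorescence of choline-evoked depolarization via CHT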
[6] = Trypanosoma cruzi growth suppression in host cells – NIH3T3 host cells, beta-gal luminescence, confirmation (AID 2044); type: functional, cell-based;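 note: intracellular parasites grown in NIH/3T3 mouse fibroblasts as host cells; luminescent beta-galactosidase reporter signal from transgenic T. cruzi replicating inside host cells; inhibitors lower the luminescence signal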
[7] = molecular target: Proto-oncogene tyrosine-protein kinase Src (Homo sapiens, UniProt P12931); type: functional;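 note: SRC entry within a kinome-wide kinase profiling panel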
[8] = molecular target: Casein kinase II subunit alpha (Homo sapiens, UniProt P68400); type: functional
[9] = molecular target: Serine/threonine-protein kinase MRCK alpha (Homo sapiens, UniProt Q5VT25); type: functional
[10] = molecular target: Vascular endothelial growth factor receptor 2 (Homo sapiens, UniProt P35968); type: functional
[11] = molecular target: Fibroblast growth factor receptor 1 (Homo sapiens, UniProt P11362); type: functional
[12] = molecular target: Serine/threonine-protein kinase 3 (Homo sapiens, UniProt Q13188); type: functional;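 note: measured as one member of a kinome-wide kinase panel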
[13] = molecular target: Serine/threonine-protein kinase pim-1 (Homo sapiens, UniProt P11309); type: functional
[14] = molecular target: Cyclin-dependent kinase 1 (Homo sapiens, UniProt P06493); type: functional;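 note: Kinome-wide panel profiling, with the target listed as panel member CDC2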
[15] = molecular target: Inhibitor of nuclear factor kappa-B kinase subunit alpha (Homo sapiens, UniProt O15111); type: functional
[16] = molecular target: Glycogen synthase kinase-3 beta (Homo sapiens, UniProt P49841); type: functional;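 note: value comes from a broad kinome profiling panel, with GSK3B as the panel member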
[17] = molecular target: MAP/microtubule affinity-regulating kinase 3 (Homo sapiens, UniProt P27448); type: functional;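 note: MARK3 affinity measured as one member of a kinome panel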
[18] = molecular target: Calcium/calmodulin-dependent protein kinase type 1 (Homo sapiens, UniProt Q14012); type: functional
[19] = molecular target: Vascular endothelial growth factor receptor 3 (Homo sapiens, UniProt P35916); type: functional;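 note: value from a kinome-wide profiling panel, with FLT4 as the panel member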
[20] = molecular target: MAP kinase-activated protein kinase 2 (Homo sapiens, UniProt P49137); type: functional;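 note: measured as one member of a kinome-wide kinase panel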
[21] = molecular target: Ribosomal protein S6 kinase alpha-3 (Homo sapiens, UniProt P51812); type: functional;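 note: measured within a kinome-wide profiling panel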
[22] = molecular target: 5'-AMP-activated protein kinase catalytic subunit alpha-1 (Homo sapiens, UniProt Q13131); type: functional
[23] = molecular target: Protein kinase C gamma type (Homo sapiens, UniProt P05129); type: functional
[24] = molecular target: Protein kinase C delta type (Homo sapiens, UniProt Q05655); type: functional
[25] = molecular target: Serine/threonine-protein kinase PLK3 (Homo sapiens, UniProt Q9H4B4); type: functional
[26] = molecular target: Cyclin-dependent kinase 5 (Homo sapiens, UniProt Q00535); type: functional;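 note: CDK5 measured as one member of a kinase profiling panel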
[27] = molecular target: Death-associated protein kinase 3 (Homo sapiens, UniProt O43293); type: functional;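 note: measured as one member of a kinome-wide profiling panel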
[28] = molecular target: Mitogen-activated protein kinase 9 (Homo sapiens, UniProt P45984); type: functional;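 note: value from a kinome panel profiling assay, MAPK9 panel entry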
Insulin receptor = Insulin receptor (Homo sapiens, UniProt P06213); type: functional;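 note: insulin receptor kinase tested as one member of a kinome-wide kinase panel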
[29] = molecular target: Receptor tyrosine-protein kinase erbB-4 (Homo sapiens, UniProt Q15303); type: functional;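 note: ERBB4 member of a kinome-wide kinase profiling panel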
[30] = molecular target: RAC-alpha serine/threonine-protein kinase (Homo sapiens, UniProt P31749); type: functional;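 note: AKT1 affinity measured as one member of a kinome-wide kinase profiling panel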
[31] = molecular target: Protein kinase C zeta type (Homo sapiens, UniProt Q05513); type: functional;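 note: measured as one member of a broad kinase profiling panel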
[32] = molecular target: Mitogen-activated protein kinase 12 (Homo sapiens, UniProt P53778); type: functional;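 note: measured as one member of a kinome-wide kinase profiling panel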
[33] = molecular target: Tyrosine-protein kinase JAK2 (Homo sapiens, UniProt O60674); type: functional;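 note: JAK2 tested as one member of a kinase panel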
[34] = molecular target: Rho-associated protein kinase 1 (Homo sapiens, UniProt Q13464); type: functional;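 note: measured within a broad kinome-wide panel profiling many kinases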
[35] = molecular target: Glycogen synthase kinase-3 alpha (Homo sapiens, UniProt P49840); type: functional;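 note: GSK3A result taken from a broad kinome-wide kinase panel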
[36] = molecular target: Serine/threonine-protein kinase PAK 1 (Homo sapiens, UniProt Q13153); type: functional
[37] = molecular target: Serine/threonine-protein kinase PAK 4 (Homo sapiens, UniProt O96013); type: functional;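 note: value obtained within a kinome profiling panel in which PAK4 was one of the panel members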
LIM domain kinase 1 = LIM domain kinase 1 (Homo sapiens, UniProt P53667); test: Navigating the Kinome. Panel member name: LIMK1; type: functional
[38] = molecular target: Inhibitor of nuclear factor kappa-B kinase subunit beta (Homo sapiens, UniProt O14920); type: functional
[39] = molecular target: Casein kinase I isoform delta (Homo sapiens, UniProt P48730); type: functional;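 note: measured as one member (CSNK1D) of a kinome panel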
Aurora kinase B = Aurora kinase B (Homo sapiens, UniProt Q96GD4); type: functional
[40] = molecular target: MAP kinase-activated protein kinase 3 (Homo sapiens, UniProt Q16644); type: functional;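 note: value comes from a kinome-wide profiling panel in which MAPKAPK3 is one of the panel members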
[41] = molecular target: Dual specificity tyrosine-phosphorylation-regulated kinase 1A (Homo sapiens, UniProt Q13627); type: functional;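 note: measured against DYRK1A as one member of a broad kinome profiling panel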
Aurora kinase A = Aurora kinase A (Homo sapiens, UniProt O14965); type: functional;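 note: value from the Navigating the Kinome kinase panel profiling, panel entry STK6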
[42] = molecular target: Serine/threonine-protein kinase PLK4 (Homo sapiens, UniProt O00444); type: functional;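 note: PLK4 measured as one member of a kinome-wide kinase profiling panel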
[43] = molecular target: BDNF/NT-3 growth factors receptor (Homo sapiens, UniProt Q16620); type: functional;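 note: NTRK2 measured as one member of a broad kinome-wide kinase profiling panel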
[44] = molecular target: Tyrosine-protein kinase Blk (Homo sapiens, UniProt P51451); type: functional;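 note: obtained as one member of a kinome-wide kinase assay panel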
[45] = molecular target: Mitogen-activated protein kinase 8 (Homo sapiens, UniProt P45983); type: functional;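 note: value comes from one member of a kinome-wide kinase profiling panel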
[46] = molecular target: Serine/threonine-protein kinase Nek2 (Homo sapiens, UniProt P51955); type: functional
[47] = molecular target: Mitogen-activated protein kinase 1 (Homo sapiens, UniProt P28482); type: functional
[48] = molecular target: Serine/threonine-protein kinase Chk2 (Homo sapiens, UniProt O96017); type: functional;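 note: CHEK2 entry within a kinome-wide screening panel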
[49] = molecular target: Serine/threonine-protein kinase PLK1 (Homo sapiens, UniProt P53350); type: functional;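 note: PLK1 measured as one member of a kinome-wide profiling panel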
[50] = molecular target: Tyrosine-protein kinase JAK3 (Homo sapiens, UniProt P52333); type: functional
[51] = molecular target: RAC-gamma serine/threonine-protein kinase (Homo sapiens, UniProt Q9Y243); type: functional
[52] = molecular target: cAMP-dependent protein kinase catalytic subunit alpha (Homo sapiens, UniProt P17612); type: functional
[53] = molecular target: 3-phosphoinositide-dependent protein kinase 1 (Homo sapiens, UniProt O15530); type: functional;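 note: value comes from the Navigating the Kinome panel, PDPK1 member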
[54] = molecular target: Ribosomal protein S6 kinase beta-1 (Homo sapiens, UniProt P23443); type: functional;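 note: measured as one member of a kinome-wide profiling panel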
[55] = molecular target: Serine/threonine-protein kinase Chk1 (Homo sapiens, UniProt O14757); type: functional;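 note: measured as one member of a kinome-wide kinase profiling panel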
[56] = molecular target: Interleukin-1 receptor-associated kinase 4 (Homo sapiens, UniProt Q9NWZ3); type: functional
Chain of Interleukin-1 receptor-associated kinase 4 (Q9NWZ3 whole entry): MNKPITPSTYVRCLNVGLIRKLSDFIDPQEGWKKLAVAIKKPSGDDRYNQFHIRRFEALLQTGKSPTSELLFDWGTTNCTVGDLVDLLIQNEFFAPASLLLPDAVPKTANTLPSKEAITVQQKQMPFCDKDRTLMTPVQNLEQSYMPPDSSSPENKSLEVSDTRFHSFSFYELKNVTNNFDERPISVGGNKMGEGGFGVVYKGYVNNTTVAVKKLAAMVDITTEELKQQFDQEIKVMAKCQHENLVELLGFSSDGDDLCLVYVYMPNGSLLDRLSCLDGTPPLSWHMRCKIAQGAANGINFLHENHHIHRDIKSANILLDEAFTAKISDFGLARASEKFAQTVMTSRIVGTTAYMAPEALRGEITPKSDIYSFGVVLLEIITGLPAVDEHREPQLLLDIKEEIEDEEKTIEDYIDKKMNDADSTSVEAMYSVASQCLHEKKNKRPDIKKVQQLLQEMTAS

Chain of Mitogen-activated protein kinase 8 (P45983 whole entry): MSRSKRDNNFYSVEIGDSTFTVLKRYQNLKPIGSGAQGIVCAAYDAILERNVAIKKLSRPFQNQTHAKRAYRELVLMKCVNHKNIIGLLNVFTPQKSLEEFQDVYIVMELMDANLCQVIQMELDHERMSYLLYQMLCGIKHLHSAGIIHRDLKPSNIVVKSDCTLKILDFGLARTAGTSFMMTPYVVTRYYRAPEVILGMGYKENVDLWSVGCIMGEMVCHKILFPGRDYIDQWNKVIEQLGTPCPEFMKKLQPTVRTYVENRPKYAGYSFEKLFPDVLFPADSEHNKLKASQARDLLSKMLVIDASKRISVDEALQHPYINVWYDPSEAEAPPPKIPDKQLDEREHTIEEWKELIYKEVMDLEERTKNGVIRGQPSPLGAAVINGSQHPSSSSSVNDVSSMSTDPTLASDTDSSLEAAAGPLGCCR
Chain of Serine/threonine-protein kinase 3 (Q13188 whole entry): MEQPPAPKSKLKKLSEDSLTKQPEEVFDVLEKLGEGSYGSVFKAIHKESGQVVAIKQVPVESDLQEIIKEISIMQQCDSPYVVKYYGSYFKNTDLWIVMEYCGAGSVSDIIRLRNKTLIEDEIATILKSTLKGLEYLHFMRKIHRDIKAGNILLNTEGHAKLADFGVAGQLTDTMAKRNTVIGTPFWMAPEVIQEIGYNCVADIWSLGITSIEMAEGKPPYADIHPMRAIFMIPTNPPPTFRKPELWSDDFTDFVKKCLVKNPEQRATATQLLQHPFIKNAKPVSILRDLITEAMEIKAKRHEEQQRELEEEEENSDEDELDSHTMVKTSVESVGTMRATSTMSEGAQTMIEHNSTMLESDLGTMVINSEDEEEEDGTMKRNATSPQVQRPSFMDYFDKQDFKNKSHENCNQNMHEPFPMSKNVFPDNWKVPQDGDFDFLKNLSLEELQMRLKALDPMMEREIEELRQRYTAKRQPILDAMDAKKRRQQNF
Chain of Rho-associated protein kinase 1 (Q13464 whole entry): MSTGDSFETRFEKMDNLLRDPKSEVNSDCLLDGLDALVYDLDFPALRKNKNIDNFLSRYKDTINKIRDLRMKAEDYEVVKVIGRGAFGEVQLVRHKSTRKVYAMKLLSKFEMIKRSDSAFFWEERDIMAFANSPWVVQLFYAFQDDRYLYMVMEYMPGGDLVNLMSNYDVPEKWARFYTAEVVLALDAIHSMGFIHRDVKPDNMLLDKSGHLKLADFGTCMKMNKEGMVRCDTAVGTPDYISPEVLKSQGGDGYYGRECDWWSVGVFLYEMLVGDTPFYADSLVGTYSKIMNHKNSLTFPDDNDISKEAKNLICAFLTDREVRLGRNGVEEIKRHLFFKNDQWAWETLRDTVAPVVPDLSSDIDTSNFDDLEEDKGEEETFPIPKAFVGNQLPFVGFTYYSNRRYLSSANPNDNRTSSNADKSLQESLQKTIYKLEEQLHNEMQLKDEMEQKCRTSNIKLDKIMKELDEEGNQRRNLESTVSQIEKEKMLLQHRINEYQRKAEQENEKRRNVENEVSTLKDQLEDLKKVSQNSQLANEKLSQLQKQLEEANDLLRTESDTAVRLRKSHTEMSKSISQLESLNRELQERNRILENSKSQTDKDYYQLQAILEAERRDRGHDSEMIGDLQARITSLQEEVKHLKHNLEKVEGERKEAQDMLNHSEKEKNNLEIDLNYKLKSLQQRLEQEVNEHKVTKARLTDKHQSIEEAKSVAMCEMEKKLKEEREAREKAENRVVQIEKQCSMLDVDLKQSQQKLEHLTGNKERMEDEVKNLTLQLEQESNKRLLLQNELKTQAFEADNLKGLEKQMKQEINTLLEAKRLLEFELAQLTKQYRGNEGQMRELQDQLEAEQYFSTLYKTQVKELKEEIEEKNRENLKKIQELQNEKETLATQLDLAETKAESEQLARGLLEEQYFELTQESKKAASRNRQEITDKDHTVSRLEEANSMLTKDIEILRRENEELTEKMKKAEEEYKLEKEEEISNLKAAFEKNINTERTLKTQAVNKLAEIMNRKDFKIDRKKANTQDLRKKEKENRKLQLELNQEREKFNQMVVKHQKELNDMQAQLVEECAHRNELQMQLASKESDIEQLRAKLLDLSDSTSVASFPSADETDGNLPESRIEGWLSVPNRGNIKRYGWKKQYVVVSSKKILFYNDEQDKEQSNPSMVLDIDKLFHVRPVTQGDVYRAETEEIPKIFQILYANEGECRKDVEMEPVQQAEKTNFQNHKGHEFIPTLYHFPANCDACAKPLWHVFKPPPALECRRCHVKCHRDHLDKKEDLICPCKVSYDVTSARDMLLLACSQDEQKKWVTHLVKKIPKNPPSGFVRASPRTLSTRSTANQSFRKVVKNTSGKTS
Chain of Mitogen-activated protein kinase 1 (P28482 whole entry): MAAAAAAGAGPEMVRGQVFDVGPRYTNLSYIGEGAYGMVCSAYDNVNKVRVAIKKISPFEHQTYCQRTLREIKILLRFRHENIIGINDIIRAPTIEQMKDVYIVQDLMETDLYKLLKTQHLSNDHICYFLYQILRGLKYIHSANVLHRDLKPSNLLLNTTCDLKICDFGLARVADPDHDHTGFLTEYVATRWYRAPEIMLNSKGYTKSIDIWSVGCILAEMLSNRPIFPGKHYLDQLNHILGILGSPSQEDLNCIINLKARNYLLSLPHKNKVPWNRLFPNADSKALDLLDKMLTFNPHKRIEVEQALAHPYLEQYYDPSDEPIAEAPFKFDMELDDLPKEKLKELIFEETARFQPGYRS
Chain of Mitogen-activated protein kinase 9 (P45984 whole entry): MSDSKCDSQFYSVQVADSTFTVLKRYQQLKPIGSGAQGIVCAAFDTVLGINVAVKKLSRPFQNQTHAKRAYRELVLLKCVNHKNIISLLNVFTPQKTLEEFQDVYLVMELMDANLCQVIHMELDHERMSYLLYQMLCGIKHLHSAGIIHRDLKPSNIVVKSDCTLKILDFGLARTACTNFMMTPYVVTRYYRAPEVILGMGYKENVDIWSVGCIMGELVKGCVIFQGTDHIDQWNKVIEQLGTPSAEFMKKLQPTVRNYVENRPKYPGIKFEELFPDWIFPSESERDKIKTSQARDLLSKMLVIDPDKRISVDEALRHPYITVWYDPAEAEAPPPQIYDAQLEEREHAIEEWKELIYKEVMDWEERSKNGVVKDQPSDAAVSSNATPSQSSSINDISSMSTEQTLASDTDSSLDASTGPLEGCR
Chain of Glycogen synthase kinase-3 alpha (P49840 whole entry): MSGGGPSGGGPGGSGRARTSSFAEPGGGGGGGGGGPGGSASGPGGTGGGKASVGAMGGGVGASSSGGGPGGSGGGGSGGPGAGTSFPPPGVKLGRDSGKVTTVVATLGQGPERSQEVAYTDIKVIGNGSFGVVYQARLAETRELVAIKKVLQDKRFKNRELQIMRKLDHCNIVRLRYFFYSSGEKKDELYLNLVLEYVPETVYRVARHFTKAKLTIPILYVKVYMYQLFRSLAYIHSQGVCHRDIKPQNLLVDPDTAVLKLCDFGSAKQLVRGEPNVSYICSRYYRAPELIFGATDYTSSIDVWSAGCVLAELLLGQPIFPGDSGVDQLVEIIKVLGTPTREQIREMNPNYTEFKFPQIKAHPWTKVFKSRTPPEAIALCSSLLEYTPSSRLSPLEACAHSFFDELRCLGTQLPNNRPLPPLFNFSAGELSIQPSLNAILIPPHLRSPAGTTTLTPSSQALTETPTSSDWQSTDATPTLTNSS
Chain of Mitogen-activated protein kinase 12 (P53778 whole entry): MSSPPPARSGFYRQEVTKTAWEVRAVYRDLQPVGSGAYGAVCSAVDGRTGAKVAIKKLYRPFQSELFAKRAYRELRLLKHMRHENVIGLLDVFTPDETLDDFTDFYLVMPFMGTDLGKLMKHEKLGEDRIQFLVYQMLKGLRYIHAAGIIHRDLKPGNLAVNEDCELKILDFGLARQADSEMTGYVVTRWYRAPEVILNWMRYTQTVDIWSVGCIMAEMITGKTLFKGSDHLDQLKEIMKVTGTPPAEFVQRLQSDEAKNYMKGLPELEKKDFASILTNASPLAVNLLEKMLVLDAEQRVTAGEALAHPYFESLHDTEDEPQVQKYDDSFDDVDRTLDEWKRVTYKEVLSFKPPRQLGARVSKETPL
Chain of Serine/threonine-protein kinase Chk1 (O14757 whole entry): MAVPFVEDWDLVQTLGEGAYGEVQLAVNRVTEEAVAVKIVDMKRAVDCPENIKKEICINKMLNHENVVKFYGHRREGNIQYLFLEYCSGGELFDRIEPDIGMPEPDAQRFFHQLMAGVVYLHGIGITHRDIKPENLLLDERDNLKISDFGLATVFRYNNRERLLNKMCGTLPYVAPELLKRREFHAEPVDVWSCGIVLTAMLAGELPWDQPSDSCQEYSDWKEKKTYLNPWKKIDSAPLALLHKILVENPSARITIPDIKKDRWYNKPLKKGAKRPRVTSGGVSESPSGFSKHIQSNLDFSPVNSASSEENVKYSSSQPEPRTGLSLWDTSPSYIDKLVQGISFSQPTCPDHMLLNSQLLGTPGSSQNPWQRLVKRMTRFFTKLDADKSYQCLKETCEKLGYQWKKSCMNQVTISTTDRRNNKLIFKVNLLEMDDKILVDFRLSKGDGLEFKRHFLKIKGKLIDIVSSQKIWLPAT

IC50 [1]: 0.821 µM (active) | IC50 [2]: 0.821 µM (active)
SMILES: Cc1ccccc1C(C#N)c1c(Cl)cnn(Cc2cccc3ccccc23)c1=O (stereo not given)

SMILES: CCOCCCN(C)C1CCN(C(=O)c2oc3ccccc3c2NC(=O)c2ccc(F)cc2)CC1
EC50 [3]: > 60 µM (not active) | IC50 [4]: 6.85 µM (active) | IC50 [5]: 6.69 µM (active) | EC50 [6]: 0.267 µM (active)

Ki [7]: > 5.01 µM (inactive) | Ki [8]: > 6.31 µM (inactive) | Ki [9]: 2.51 µM (active) | Ki [10]: > 7.94 µM (inactive) | Ki [11]: > 5.01 µM (inactive) | Ki [12]: 3.98 µM (active) | Ki [13]: 1.26 µM (active) | Ki [14]: 3.98 µM (active) | Ki [15]: 1.26 µM (active) | Ki [16]: > 6.31 µM (inactive) | Ki [17]: > 6.31 µM (inactive) | Ki [18]: 3.98 µM (active) | Ki [19]: > 6.31 µM (inactive) | Ki [20]: 3.98 µM (active) | Ki [21]: 3.98 µM (active) | Ki [22]: > 10 µM (inactive) | Ki [23]: 2.51 µM (active) | Ki [24]: 0.631 µM (active) | Ki [25]: > 7.94 µM (inactive) | Ki [26]: > 10 µM (inactive) | Ki [28]: > 3.98 µM (inactive) | Ki (Insulin receptor): > 5.01 µM (inactive) | Ki [29]: 1.58 µM (active) | Ki [30]: 3.98 µM (active) | Ki [31]: 1.26 µM (active) | Ki [32]: > 6.31 µM (inactive) | Ki [33]: 1 µM (active) | Ki [34]: 2.51 µM (active) | Ki [35]: > 7.94 µM (inactive) | Ki [36]: 1.26 µM (active) | Ki [37]: > 5.01 µM (inactive) | Ki (LIM domain kinase 1): 2 µM (active) | Ki [38]: > 3.16 µM (inactive) | Ki [39]: > 7.94 µM (inactive) | Ki (Aurora kinase B): > 6.31 µM (inactive) | Ki [40]: 1.58 µM (active) | Ki [41]: > 6.31 µM (inactive) | Ki (Aurora kinase A): > 6.31 µM (inactive) | Ki [42]: > 3.98 µM (inactive) | Ki [43]: 2 µM (active) | Ki [44]: 1 µM (active) | Ki [45]: > 3.16 µM (inactive) | Ki [46]: > 10 µM (inactive) | Ki [47]: > 7.94 µM (inactive) | Ki [48]: > 10 µM (inactive) | Ki [49]: > 7.94 µM (inactive) | Ki [50]: 0.794 µM (active) | Ki [51]: > 10 µM (inactive) | Ki [52]: > 7.94 µM (inactive) | Ki [53]: > 3.98 µM (inactive) | Ki [54]: 1.26 µM (active) | Ki [55]: > 7.94 µM (inactive) | Ki [56]: 3.98 µM (active)
SMILES: CCCCCCCCCCCCOc1ccc(NC(=N)N)cc1NC(=N)N [LAUROGUADINE]
Ki [27]: 0.316 µM (active)
